# Assay results reported in PubChem BioAssay (NCI).
#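 Protocol summary: plate cells (96-well), add compound at 5 concentrations, incubate 48 h, interpolate endpoints linearly. TGI marks complete inhibition of growth.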
# Columns and labels:
# Test in all cases: DTP human tumour cell line panel, 48 h
# 786-0 renal = system: 786-0 renal
# A549 NSCLC = system: A549 NSCLC
# ACHN renal = system: ACHN renal
# CAKI-1 renal = system: CAKI-1 renal
# CCRF-CEM leukemia = system: CCRF-CEM leukemia
# COLO 205 colon = system: COLO 205 colon
# DU-145 prostate = system: DU-145 prostate
# EKVX NSCLC = system: EKVX NSCLC
# HCC-2998 colon = system: HCC-2998 colon
# HCT-116 colon = system: HCT-116 colon
# HCT-15 colon = system: HCT-15 colon
# HL-60(TB) leukemia = system: HL-60(TB) leukemia
# HS 578T breast = system: HS 578T breast
# HT29 colon = system: HT29 colon
# K-562 leukemia = system: K-562 leukemia
# KM12 colon = system: KM12 colon
# LOX IMVI melanoma = system: LOX IMVI melanoma
# M14 melanoma = system: M14 melanoma
# MALME-3M melanoma = system: MALME-3M melanoma
# MCF7 breast = system: MCF7 breast
# MDA-MB-435 = system: MDA-MB-435
# MDA-N = system: MDA-N
# MOLT-4 leukemia = system: MOLT-4 leukemia
# NCI-H226 lung = system: NCI-H226 lung
# NCI-H460 lung = system: NCI-H460 lung
# NCI-H522 lung = system: NCI-H522 lung
# NCI/ADR-RES ovarian = system: NCI/ADR-RES ovarian
# OVCAR-3 ovarian = system: OVCAR-3 ovarian
# OVCAR-4 ovarian = system: OVCAR-4 ovarian
# OVCAR-5 ovarian = system: OVCAR-5 ovarian
# OVCAR-8 ovarian = system: OVCAR-8 ovarian
# PC-3 prostate = system: PC-3 prostate
# RPMI-8226 leukemia = system: RPMI-8226 leukemia
# RXF 393 renal = system: RXF 393 renal
# SF-268 CNS = system: SF-268 CNS
# SF-295 CNS = system: SF-295 CNS
# SF-539 CNS = system: SF-539 CNS
# SK-MEL-2 melanoma = system: SK-MEL-2 melanoma
# SK-MEL-28 melanoma = system: SK-MEL-28 melanoma
# SK-MEL-5 melanoma = system: SK-MEL-5 melanoma
# SK-OV-3 ovarian = system: SK-OV-3 ovarian
# SN12C renal = system: SN12C renal
# SNB-19 CNS = system: SNB-19 CNS
# SNB-75 CNS = system: SNB-75 CNS
# SR leukemia = system: SR leukemia
# SW-620 colon = system: SW-620 colon
# T-47D breast = system: T-47D breast
# TK-10 renal = system: TK-10 renal
# U251 CNS = system: U251 CNS
# UACC-257 melanoma = system: UACC-257 melanoma
# UACC-62 melanoma = system: UACC-62 melanoma
# UO-31 renal = system: UO-31 renal
compound,measurement,setting,value
S=C(NCc1ccccn1)N/N=C/c1ccccn1,TGI,786-0 renal,> 86.1 µM
same,TGI,A549 NSCLC,1.46 µM
same,TGI,ACHN renal,1.1 µM
same,TGI,CAKI-1 renal,4.33 µM
same,TGI,CCRF-CEM leukemia,< 0.011 µM
same,TGI,COLO 205 colon,0.379 µM
same,TGI,DU-145 prostate,> 100 µM
same,TGI,EKVX NSCLC,2.44 µM
same,TGI,HCC-2998 colon,> 100 µM
same,TGI,HCT-116 colon,< 0.01 µM
same,TGI,HCT-15 colon,> 100 µM
same,TGI,HL-60(TB) leukemia,< 0.01 µM
same,TGI,HS 578T breast,70.1 µM
same,TGI,HT29 colon,> 100 µM
same,TGI,K-562 leukemia,< 0.0108 µM
same,TGI,KM12 colon,> 100 µM
same,TGI,LOX IMVI melanoma,33.3 µM
same,TGI,M14 melanoma,> 100 µM
same,TGI,MALME-3M melanoma,38.3 µM
same,TGI,MCF7 breast,> 100 µM
same,TGI,MDA-MB-435,> 100 µM
same,TGI,MDA-N,> 100 µM
same,TGI,MOLT-4 leukemia,< 0.0357 µM
same,TGI,NCI-H226 lung,0.163 µM
same,TGI,NCI-H460 lung,2.7 µM
same,TGI,NCI-H522 lung,0.0713 µM
same,TGI,NCI/ADR-RES ovarian,> 100 µM
same,TGI,OVCAR-3 ovarian,> 100 µM
same,TGI,OVCAR-4 ovarian,> 30.5 µM
same,TGI,OVCAR-5 ovarian,> 100 µM
same,TGI,OVCAR-8 ovarian,> 100 µM
same,TGI,PC-3 prostate,> 84.9 µM
same,TGI,RPMI-8226 leukemia,< 0.01 µM
same,TGI,RXF 393 renal,4.52 µM
same,TGI,SF-268 CNS,> 100 µM
same,TGI,SF-295 CNS,> 96 µM
same,TGI,SF-539 CNS,0.396 µM
same,TGI,SK-MEL-2 melanoma,0.876 µM
same,TGI,SK-MEL-28 melanoma,> 100 µM
same,TGI,SK-MEL-5 melanoma,1.5 µM
same,TGI,SK-OV-3 ovarian,97.9 µM
same,TGI,SN12C renal,9.25 µM
same,TGI,SNB-19 CNS,28.6 µM
same,TGI,SNB-75 CNS,> 100 µM
same,TGI,SR leukemia,0.0113 µM
same,TGI,SW-620 colon,> 100 µM
same,TGI,T-47D breast,> 61.5 µM
same,TGI,TK-10 renal,> 100 µM
same,TGI,U251 CNS,> 60.2 µM
same,TGI,UACC-257 melanoma,< 0.01 µM
same,TGI,UACC-62 melanoma,4.12 µM
same,TGI,UO-31 renal,32.6 µM
